Results taken from patent publication US20140121240A1, “NOVEL PHARMACEUTICAL COMPOSITION” (MARUHO CO., LTD., priority 2011, published 2014).

System: pruritogen-induced scratching behavior
Test: Antipruritic effect on pruritogen-induced scratching model (Experiment 1)
Type: in vivo, mouse
Details: for Counts of scratching (Mean): 3% w/v in acetone 50 μL topical 1 h before, ICR female mouse
Excerpt: [Antipruritic Effect of Test Compound on Pruritogen-Induced Scratching Model]
For the purpose of measuring scratching behavior (counts of scratching), a cylindrical magnet (diameter: 1 mm, length: 3 mm) was implanted into instep of right hindlimb of each mouse (ICR female mouse, 6 weeks old; Charles River Laboratories, Japan Inc.) under anesthesia at least three days before testing, and hair on her right dorsal neck was removed by a shaver under anesthesia the day before testing. After topical administration of a solution of test compound in acetone (3% w/v solution of 1-[2-(4S)-4-hydroxy-1,2,3,4-tetrahydroquinolin-1-yl]-4-pyridyl]-2,3-bis(dihydroxymethyl)-6,7-dimethoxynaphthalene sesquihydrate, as hereinafter referred to as Compound A, in acetone; 50 μL) or a vehicle (acetone; 50 μL) to the right dorsal neck of the above-treated mouse, these mice were placed into a testing apparatus (MicroAct, Neuroscience Inc.). After one hour of the administration of the above-mentioned solution, to the right dorsal neck of each mouse was intradermally administered a solution (50 μL) of a pruritogen in saline [histamine: 300 nmol/50 μL, U-46619 (chemical name: 9,11-dideoxy-9α,11α-methanoepoxyprosta-5Z,13E-dien-1-oic acid, Cayman Chemical Company): 10 nmol/50 μL, Compound 48/80 (Sigma): 3 μg/50 μL, serotonin (Sigma): 100 nmol/50 μL, or Substance P (Peptide Institute Inc.): 300 nmol/50 μL] or saline. Immediately after the administration, scratching behavior (counts of scratching) was measured for 30 minutes by MicroAct.

COc1cc2cc(CO)c(CO)c(-c3ccnc(N4CC[C@H](O)c5ccccc54)c3)c2cc1OC [Compound A, 1-[2-(4S)-4-hydroxy-1,2,3,4-tetrahydroquinolin-1-yl]-4-pyridyl]-2,3-bis(dihydroxymethyl)-6,7-dimethoxynaphthalene sesquihydrate]
pruritogen-induced scratching behavior (counts of scratching), result in words (3% w/v topical, all pruritogens of Tables 1 to 5): significantly inhibited
Counts of scratching (Mean) (pruritogen Compound 48/80 3 μg/50 μL intradermal, n = 15): 521 beats/30 min.
Counts of scratching (Mean) (pruritogen Substance P 300 nmol/50 μL intradermal, n = 15): 777 beats/30 min.
Counts of scratching (Mean) (pruritogen U-46619 10 nmol/50 μL intradermal, n = 15): 1069 beats/30 min.
Counts of scratching (Mean) (pruritogen histamine 300 nmol/50 μL intradermal, n = 11): 365 beats/30 min.
Counts of scratching (Mean) (pruritogen serotonin 100 nmol/50 μL intradermal, n = 10): 841 beats/30 min.
